This note sets out measurements from patent US11655217B2, “Pyrazole MAGL inhibitors” (H. Lundbeck A/S, priority 2017, dated 2023).

Structures are written as SMILES.

The target of experiment [1] is MAGL (Mus musculus (Mouse), UniProt O35678). Description: Mouse brain proteomes from inhibitor treated mice (oral gavage, sacrificed 4 h after administration, ABPP analysis). Particulars: 5 mg/kg oral gavage.
Description: (§1) Preparation of Mouse Brain Proteomes from Inhibitor Treated Mice.
(§2) Inhibitors were administered to wild-type C57Bl/6J by oral gavage in a vehicle of polyethylene glycol.
Experiment [2] concerns the target FAAH (Mus musculus (Mouse), UniProt O08914). Description: Mouse brain proteomes from inhibitor treated mice (oral gavage, sacrificed 4 h after administration, ABPP analysis), FAAH. Particulars: 5 mg/kg oral gavage.
Description: as §1, §2

MAGL, sequence (O35678 whole entry): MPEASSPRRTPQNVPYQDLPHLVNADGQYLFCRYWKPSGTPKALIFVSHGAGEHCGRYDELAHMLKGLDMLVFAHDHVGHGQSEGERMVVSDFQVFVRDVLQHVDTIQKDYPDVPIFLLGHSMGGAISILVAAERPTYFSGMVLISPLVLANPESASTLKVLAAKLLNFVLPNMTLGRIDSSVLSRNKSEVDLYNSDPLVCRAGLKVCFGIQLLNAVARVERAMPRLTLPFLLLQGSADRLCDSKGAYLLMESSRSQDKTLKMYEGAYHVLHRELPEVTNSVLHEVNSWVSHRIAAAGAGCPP
FAAH, sequence (O08914 whole entry): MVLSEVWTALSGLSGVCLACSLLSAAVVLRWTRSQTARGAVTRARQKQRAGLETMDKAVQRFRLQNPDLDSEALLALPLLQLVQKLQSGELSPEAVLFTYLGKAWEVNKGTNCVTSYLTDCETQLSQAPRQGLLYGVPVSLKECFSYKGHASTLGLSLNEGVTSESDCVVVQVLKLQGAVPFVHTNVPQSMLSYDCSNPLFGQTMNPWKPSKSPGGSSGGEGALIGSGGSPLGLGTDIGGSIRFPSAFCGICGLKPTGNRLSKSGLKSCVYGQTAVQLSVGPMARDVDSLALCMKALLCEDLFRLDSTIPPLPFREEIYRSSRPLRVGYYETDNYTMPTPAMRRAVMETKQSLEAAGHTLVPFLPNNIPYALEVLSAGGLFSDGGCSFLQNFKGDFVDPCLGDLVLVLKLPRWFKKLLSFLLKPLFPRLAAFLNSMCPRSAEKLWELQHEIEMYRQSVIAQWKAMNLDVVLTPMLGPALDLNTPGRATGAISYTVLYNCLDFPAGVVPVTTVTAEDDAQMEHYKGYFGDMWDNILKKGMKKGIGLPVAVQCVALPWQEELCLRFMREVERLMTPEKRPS

As to `O=C(O)c1ccn(C(=O)N2CCN(Cc3ccc(C(F)(F)F)cc3N3CCN(C4CC4)CC3)CC2)n1` [Example 6, 1-(4-(2-(4-Cyclopropylpiperazin-1-yl)-4-(trifluoromethyl)benzyl)piperazine-1-carbonyl)-1H-pyrazole-3-carboxylic Acid], in experiment [1], the “MAGL % inh. 5 mg/kg (mouse)” value was “D (% inhibition is greater than or equal to 0% and less than 25%)”. Further, in experiment [2], the “FAAH % inh. 5 mg/kg (mouse)” value was “D (% inhibition is greater than or equal to 0% and less than 25%)”.
With `O=C(O)c1ccn(C(=O)N2CCN(Cc3ccc(Cl)cc3N3C4CCC3COC4)CC2)n1` [Example 105, 1-(4-(2-(3-oxa-8-azabicyclo[3.2.1]octan-8-yl)-4-chlorobenzyl)piper-azine-1-carbonyl)-1H-pyrazole-3-carboxylic acid], in experiment [1], the “MAGL % inh. 5 mg/kg (mouse)” value is “D (% inhibition is greater than or equal to 0% and less than 25%)”. Also, in experiment [2], the “FAAH % inh. 5 mg/kg (mouse)” value was “D (% inhibition is greater than or equal to 0% and less than 25%)”.
For `O=C(O)c1ccn(C(=O)N2CCN(Cc3ccc(C(F)(F)F)c(-c4nccs4)c3)CC2)n1` [Example 8, 1-(4-(3-(Thiazol-2-yl)-4-(trifluoromethyl)benzyl)piperazine-1-carbonyl)-1H-pyrazole-3-carboxylic Acid], the “MAGL % inh. 5 mg/kg (mouse)” value in experiment [1] is “D (% inhibition is greater than or equal to 0% and less than 25%)”. For the same compound, the “FAAH % inh. 5 mg/kg (mouse)” value in experiment [2] was “D (% inhibition is greater than or equal to 0% and less than 25%)”.
Regarding `O=C(O)c1ccn(C(=O)N2C[C@H]3C[C@H](OCc4cccc(C(F)(F)F)c4)C[C@H]3C2)n1` [Example 157, 1-(trans-5-((3-(trifluoromethyl)benzyl)oxy)octa-hydrocyclopenta[c]pyrrole-2-carbonyl)-1H-pyrazole-3-carboxylic acid], the “MAGL % inh. 5 mg/kg (mouse)” value in experiment [1] is “D (% inhibition is greater than or equal to 0% and less than 25%)”. Besides, the “FAAH % inh. 5 mg/kg (mouse)” value in experiment [2] was “D (% inhibition is greater than or equal to 0% and less than 25%)”.
With `Cc1cn(C(=O)N2CCC3(CC2)CN(Cc2ccc(C(F)(F)F)cc2N2CCCC2)C3)nc1C(=O)O` [Example 135, 4-methyl-1-(2-(2-(pyrrolidin-1-yl)-4-(trifluoromethyl)benzyl)-2,7-diazaspiro[3.5]no-nane-7-carbonyl)-1H-pyrazole-3-carboxylic acid], the “MAGL % inh. 5 mg/kg (mouse)” value in experiment [1] was “D (% inhibition is greater than or equal to 0% and less than 25%)”. In experiment [2], the “FAAH % inh. 5 mg/kg (mouse)” value is “D (% inhibition is greater than or equal to 0% and less than 25%)”.
Regarding `O=C(O)c1ccn(C(=O)N2CCN(Cc3ccc(C(F)(F)F)cc3N3CC4COCC4C3)CC2)n1` (stereo not shown) [Example 106, 1-(4-(2-(tetrahydro-1H-furo[3,4-c]pyrrol-5(3H)-yl)-4-(trifluoromethyl)benzyl)piperazine-1-carbonyl)-1H-pyrazole-3-carboxylic acid], the “MAGL % inh. 5 mg/kg (mouse)” value in experiment [1] was “D (% inhibition is greater than or equal to 0% and less than 25%)”. In experiment [2], the “FAAH % inh. 5 mg/kg (mouse)” value is “D (% inhibition is greater than or equal to 0% and less than 25%)”.
For `NC(=O)C1CCN(c2cc(C(F)(F)F)ccc2CN2CCN(C(=O)n3ccc(C(=O)O)n3)CC2)CC1` [Example 113, 1-(4-(2-(4-carbamoylpiperidin-1-yl)-4-(trifluoromethyl)benzyl)piperazine-1-carbonyl)-1H-pyrazole-3-carboxylic acid], the “MAGL % inh. 5 mg/kg (mouse)” value in experiment [1] was “D (% inhibition is greater than or equal to 0% and less than 25%)”. In experiment [2], the “FAAH % inh. 5 mg/kg (mouse)” value is “D (% inhibition is greater than or equal to 0% and less than 25%)”.
In the case of `O=C(O)c1ccn(C(=O)N2CCN(Cc3cccc(Oc4ccc(F)cc4)c3)CC2)n1` [Example 51, 1-(4-(3-(4-fluorophenoxy)benzyl)piperazine-1-carbonyl)-1H-pyrazole-3-carboxylic acid], the “MAGL % inh. 5 mg/kg (mouse)” value in experiment [1] is “D (% inhibition is greater than or equal to 0% and less than 25%)”. In experiment [2], the “FAAH % inh. 5 mg/kg (mouse)” value is “D (% inhibition is greater than or equal to 0% and less than 25%)”.
